pIC50: −log10 of the molar value.

The target in the assay is T1, human calcium receptor (Homo sapiens, UniProt P41180).
T1 construct: expressed in transfected cells; host or cells: cell strain derived from rat adrenal, co-transformed with luciferase cDNA
T1 sequence (P41180 20-1078): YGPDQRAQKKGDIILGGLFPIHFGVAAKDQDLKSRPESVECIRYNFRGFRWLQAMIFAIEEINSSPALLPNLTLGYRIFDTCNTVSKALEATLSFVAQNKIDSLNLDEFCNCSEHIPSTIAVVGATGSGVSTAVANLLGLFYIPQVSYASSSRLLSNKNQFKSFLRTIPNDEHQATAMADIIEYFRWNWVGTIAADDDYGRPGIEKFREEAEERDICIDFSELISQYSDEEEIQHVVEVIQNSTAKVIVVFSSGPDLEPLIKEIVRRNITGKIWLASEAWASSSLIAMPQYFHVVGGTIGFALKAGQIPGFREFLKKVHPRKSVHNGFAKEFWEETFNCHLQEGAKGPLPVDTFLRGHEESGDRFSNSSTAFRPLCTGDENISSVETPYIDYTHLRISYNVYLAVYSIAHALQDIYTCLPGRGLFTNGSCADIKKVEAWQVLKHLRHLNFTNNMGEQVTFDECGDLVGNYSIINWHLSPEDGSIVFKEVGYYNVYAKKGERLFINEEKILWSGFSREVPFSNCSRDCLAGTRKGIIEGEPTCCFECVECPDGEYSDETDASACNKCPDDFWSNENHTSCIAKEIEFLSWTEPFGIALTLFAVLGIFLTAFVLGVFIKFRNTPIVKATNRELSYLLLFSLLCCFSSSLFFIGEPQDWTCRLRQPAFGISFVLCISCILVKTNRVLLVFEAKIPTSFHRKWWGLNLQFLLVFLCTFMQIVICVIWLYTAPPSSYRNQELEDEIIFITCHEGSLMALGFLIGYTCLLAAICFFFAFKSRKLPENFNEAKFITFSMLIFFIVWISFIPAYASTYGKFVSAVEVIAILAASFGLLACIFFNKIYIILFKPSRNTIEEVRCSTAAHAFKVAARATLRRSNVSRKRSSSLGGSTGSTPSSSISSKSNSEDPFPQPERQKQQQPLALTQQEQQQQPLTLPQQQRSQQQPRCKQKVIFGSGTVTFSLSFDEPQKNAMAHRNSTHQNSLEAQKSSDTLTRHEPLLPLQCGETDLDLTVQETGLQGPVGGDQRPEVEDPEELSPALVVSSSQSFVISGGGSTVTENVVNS
Description: Evaluation of antagonistic action on calcium receptor using reporter gene (luciferase). In kind it is cell-based. Particulars: transformed rat adrenal derived cells, 5 mM calcium chloride, culture 4 hrs, luciferase activity; read-out: Reporter gene assay (IC50, concentration showing 50% inhibitory rate). Here is the method: Evaluation of Antagonistic Action on Calcium Receptor Using Reporter Gene
Luciferase cDNA and human calcium receptor cDNA were introduced into a cell strain derived from rat adrenal to transform the cells, and the transformed cells were cultured in a medium (80 μl, F12 medium containing 0.5% dialyzed horse serum and 0.25% dialyzed bovine fetal serum). A dimethyl sulfoxide solution containing a test compound at 0.1-10000 μM was diluted 100-fold with the medium and added to the test compound group at 10 μl per well (dimethyl sulfoxide final concentration 0.1%). In the same manner as in test compound group, dimethyl sulfoxide 100-fold diluted with medium was added to a control group and a blank group. Then, 50 mM calcium chloride-containing medium was added to every well except the blank group at 10 μl per well (final concentration 5 mM). A medium containing 50 mM calcium chloride was added to the control group at 10 μl per well, such that the final calcium concentration of the medium became 5 mM. A medium alone was added to the blank group. After culture for 4 hrs, luciferase substrate was added and the luciferase activity was measured with a photoluminometer. The inhibitory rate (%) was calculated from the obtained measured values according to the following formula.
Based on the results, the concentration (IC50) showing 50% inhibitory rate was determined. The results are shown in the aforementioned Tables 1 to 60.
(Reporter assays use an easily measured gene product as a stand-in for the process of interest.)
Take `Cc1cc(C(=O)O)cc(C)c1-c1ccccc1[C@@H](C)OC[C@H](O)CNC(C)(C)Cc1ccc2ccccc2c1` [Example 1-75, 2,6-dimethyl-2′-[1-[(2R)-3-[[1-(naphthalen-2-yl)-2-methylpropan-2-yl]amino]-2-hydroxypropoxy]ethyl]biphenyl-4-carboxylic acid]: the pIC50 was 7.92. The value for `Cc1cc(-c2ccccc2[C@@H](C)OC[C@H](O)CNC(C)(C)Cc2cc(F)c(Cl)cc2F)ccc1C(=O)O` [Example 1-25, 2′-[1-[(2R)-3-[[1-(4-chloro-2,5-difluorophenyl)-2-methylpropan-2-yl]amino]-2-hydroxypropoxy]ethyl]-3-methylbiphenyl-4-carboxylic acid] was 7.72; that for `Cc1cc(-c2ccccc2[C@@H](C)OC[C@H](O)CNC(C)(C)Cc2ccc(C)c(F)c2F)ccc1C(=O)O` [Example 1-5, 2′-[1-[(2R)-3-[[1-(2,3-difluoro-4-methylphenyl)-2-methylpropan-2-yl]amino]-2-hydroxypropoxy]ethyl]-3-methylbiphenyl-4-carboxylic acid] was 8.52. In the case of `C[C@@H](OC[C@H](O)CNC(C)(C)Cc1ccc2ccccc2c1)c1ccccc1-c1cc(C(=O)O)ccc1F` [Example 1-58, 6-fluoro-2′-[1-[(2R)-3-[[1-(naphthalen-2-yl)-2-methylpropan-2-yl]amino]-2-hydroxypropoxy]ethyl]biphenyl-3-carboxylic acid] it was 7.68. The value for `Cc1cc(C(=O)O)cc(-c2ccccc2[C@@H](C)OC[C@H](O)CNC(C)(C)Cc2ccc(C)c(F)c2)c1` [Example 1-17, 2′-[1-[(2R)-3-[[1-(3-fluoro-4-methylphenyl)-2-methylpropan-2-yl]amino]-2-hydroxypropoxy]ethyl]-3-methylbiphenyl-5-carboxylic acid] was 7.82. Turning to `COc1cc(-c2ccccc2[C@@H](C)OC[C@H](O)CNC(C)(C)Cc2ccc(Cl)cc2F)ccc1C(=O)O` [Example 1-81, 2′-[1-[(2R)-3-[[1-(4-chloro-2-fluorophenyl)-2-methylpropan-2-yl]amino]-2-hydroxypropoxy]ethyl]-3-methoxybiphenyl-4-carboxylic acid], the pIC50 is 7.59. Take `C[C@@H](OC[C@H](O)CNC(C)(C)Cc1ccc2ccccc2c1)c1ccccc1-c1ccc(C(=O)O)c(Cl)c1` [Example 1-68, 3-chloro-2′-[1-[(2R)-3-[[1-(naphthalen-2-yl)-2-methylpropan-2-yl]amino]-2-hydroxypropoxy]ethyl]biphenyl-4-carboxylic acid]: the pIC50 was 8.52. With `Cc1ccc(CC(C)(C)NC[C@@H](O)CO[C@H](C)c2ccccc2-c2ccc(C(=O)O)c(C)c2)cc1F` [Example 1-15, 2′-[1-[(2R)-3-[[1-(3-fluoro-4-methylphenyl)-2-methylpropan-2-yl]amino]-2-hydroxypropoxy]ethyl]-3-methylbiphenyl-4-carboxylic acid], the pIC50 was 7.92. `Cc1cc(C(=O)O)ccc1-c1ccccc1[C@@H](C)OC[C@H](O)CNC(C)(C)Cc1ccc(Cl)cc1F` [Example 1-84, 2′-[1-[(2R)-3-[[1-(4-chloro-2-fluorophenyl)-2-methylpropan-2-yl]amino]-2-hydroxypropoxy]ethyl]-2-methylbiphenyl-4-carboxylic acid]: the pIC50 is 7.66. The value for `Cc1ccc(CC(C)(C)NC[C@@H](O)CO[C@H](C)c2ccccc2Oc2ccc(C(=O)O)cc2[N+](=O)[O-])cc1F` [Example 2-28, 4-[2-[1-[(2R)-3-[[1-(3-fluoro-4-methylphenyl)-2-methylpropan-2-yl]amino]-2-hydroxypropoxy]ethyl]phenoxy]-3-nitrobenzoic acid] was 8.52; that for `Cc1ccc(CC(C)(C)NC[C@@H](O)CO[C@H](C)c2ccccc2-c2ccc(C(=O)O)c(Cc3ccccc3)c2)cc1F` [Example 1-79, 3-benzyl-2′-[1-[(2R)-3-[[1-(3-fluoro-4-methylphenyl)-2-methylpropan-2-yl]amino]-2-hydroxypropoxy]ethyl]biphenyl-4-carboxylic acid] was 8.40; that for `C[C@@H](OC[C@H](O)CNC(C)(C)Cc1ccc2ccccc2c1)c1ccccc1OCc1ccc(C(=O)O)cc1` [Example 2-22, 4-[[2-[1-[(2R)-3-[[1-(naphthalen-2-yl)-2-methylpropan-2-yl]amino]-2-hydroxypropoxy]ethyl]phenoxy]methyl]benzoic acid] was 7.77. In the case of `C[C@@H](OC[C@H](O)CNC(C)(C)Cc1ccc(Cl)c(F)c1)c1ccccc1Oc1ccc(C(=O)O)cc1` [Example 2-35, 4-[2-[1-[(2R)-3-[[1-(4-chloro-3-fluorophenyl)-2-methylpropan-2-yl]amino]-2-hydroxypropoxy]ethyl]phenoxy]benzoic acid] it was 7.96; in that of `Cc1cc(-c2ccccc2[C@@H](C)OC[C@H](O)CNC(C)(C)Cc2ccc(Cl)c(Cl)c2)ccc1C(=O)O` [Example 1-61, 2′-[1-[(2R)-3-[[1-(3,4-dichlorophenyl)-2-methylpropan-2-yl]amino]-2-hydroxypropoxy]ethyl]-3-methylbiphenyl-4-carboxylic acid], 8.40.

Take `CCc1cc(-c2ccccc2[C@@H](C)OC[C@H](O)CNC(C)(C)Cc2ccc(Cl)c(F)c2)ccc1C(=O)O` [Example 1-51, 3-ethyl-2′-[1-[(2R)-3-[[1-(4-chloro-3-fluorophenyl)-2-methylpropan-2-yl]amino]-2-hydroxypropoxy]ethyl]biphenyl-4-carboxylic acid]: the pIC50 was 8.40.

On to `CC(OC[C@H](O)CNC(C)(C)Cc1ccc2ccccc2c1)c1ccccc1Sc1cccc(C(=O)O)c1` (stereo partly drawn) [Example 2-10, 3-[2-[1-[(2R)-3-[[1-(naphthalen-2-yl)-2-methylpropan-2-yl]amino]-2-hydroxypropoxy]ethyl]phenylthio]benzoic acid], for which the pIC50 was 7.57. The value for `CC(OC[C@H](O)CNC(C)(C)Cc1ccc2ccccc2c1)c1ccccc1Oc1ccc(C(=O)O)cc1` (stereo partly drawn) [Example 2-4, 4-[2-[1-[(2R)-3-[[1-(naphthalen-2-yl)-2-methylpropan-2-yl]amino]-2-hydroxypropoxy]ethyl]phenoxy]benzoic acid] was 8.00; that for `Cc1cc(-c2ccccc2[C@@H](C)OC[C@H](O)CNC(C)(C)Cc2ccc(C(F)(F)F)c(F)c2)ccc1C(=O)O` [Example 1-92, 2′-[1-[(2R)-3-[[1-(3-fluoro-4-trifluoromethylphenyl)-2-methylpropan-2-yl]amino]-2-hydroxypropoxy]ethyl]-3-methylbiphenyl-4-carboxylic acid] was 7.66. In the case of `CC(OC[C@H](O)CNC(C)(C)Cc1ccc2ccccc2c1)c1ccccc1OCc1cccc(C(=O)O)c1` (stereo partly drawn) [2-21′] it was 7.59; in that of `Cc1ccc(CC(C)(C)NC[C@@H](O)CO[C@H](C)c2ccccc2-c2ccc(C(=O)O)c(C)c2)cc1C` [Example 1-21, 3-methyl-2′-[1-[(2R)-3-[[1-(3,4-dimethylphenyl)-2-methylpropan-2-yl]amino]-2-hydroxypropoxy]ethyl]biphenyl-4-carboxylic acid], 7.89; in that of `CC(OC[C@H](O)CNC(C)(C)Cc1ccc2ccccc2c1)c1ccccc1OCc1ccccc1C(=O)O` (stereo partly drawn) [Example 2-20, 2-[[2-[1-[(2R)-3-[[1-(naphthalen-2-yl)-2-methylpropan-2-yl]amino]-2-hydroxypropoxy]ethyl]phenoxy]methyl]benzoic acid], 7.70.

The values are drawn from US7304174B2, “CaSR antagonist” (Japan Tobacco Inc., priority 2003, dated 2007).
